Assay [1] has as its system Rat Carrageenan-Induced Footpad Edema. As to the kind of experiment: Rat Carrageenan-Induced Footpad Edema Test. Type of assay: in vivo, male Sprague Dawley rats. The settings on record: Rattus norvegicus, 3 h, footpad volume 3 hours after carrageenan, read-out: PERCENT INHIBITION; for inhibition in vivo at 5 mg/kg: iv, IV. A general note: In the carrageenan paw model, swelling and tenderness develop within hours.

Assay [2] has as its target T1, cPLA2 (Homo sapiens, UniProt P47712).
T1 sequence (P47712 1-749): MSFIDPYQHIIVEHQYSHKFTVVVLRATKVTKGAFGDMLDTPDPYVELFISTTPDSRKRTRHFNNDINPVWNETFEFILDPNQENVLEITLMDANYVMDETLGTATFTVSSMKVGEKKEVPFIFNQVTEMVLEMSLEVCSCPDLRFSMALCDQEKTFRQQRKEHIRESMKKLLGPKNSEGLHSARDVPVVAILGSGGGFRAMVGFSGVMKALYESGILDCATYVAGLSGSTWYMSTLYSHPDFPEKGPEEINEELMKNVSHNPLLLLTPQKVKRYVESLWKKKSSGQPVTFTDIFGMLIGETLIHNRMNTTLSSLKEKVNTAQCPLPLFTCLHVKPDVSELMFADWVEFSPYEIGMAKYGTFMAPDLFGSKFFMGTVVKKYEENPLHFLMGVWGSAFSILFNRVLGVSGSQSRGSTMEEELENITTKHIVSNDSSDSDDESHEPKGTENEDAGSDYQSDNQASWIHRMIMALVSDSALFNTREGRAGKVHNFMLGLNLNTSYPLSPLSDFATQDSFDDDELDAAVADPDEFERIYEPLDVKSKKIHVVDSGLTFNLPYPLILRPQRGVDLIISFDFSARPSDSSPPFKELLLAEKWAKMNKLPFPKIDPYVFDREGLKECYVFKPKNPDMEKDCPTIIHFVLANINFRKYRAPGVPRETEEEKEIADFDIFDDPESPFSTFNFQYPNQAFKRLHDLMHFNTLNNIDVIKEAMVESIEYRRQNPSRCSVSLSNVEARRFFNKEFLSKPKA
As to the kind of experiment: Coumarin Assay (cPLA2 inhibition). Type of assay: biochemical. Conditions: for inhibition at 0.4 µM: CONCENTRATION 0.4 micromolar. The essentials:
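Percent inhibition at the stated concentration, from the rate of 460 nm emission rise (360 nm excitation) per minute. Reaction started by adding 4 μg enzyme to compound and 60 μM 7-hydroxycoumarinyl 6-heptenoate in Hepes buffer pH 7.5 with 1 mM EDTA.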

Where [3] appears, read: CONCENTRATION 50 micromolar, read-out: PERCENT INHIBITION @.
The mark [4] stands for this setting: CONCENTRATION 1.25 micromolar, read-out: PERCENT INHIBITION @.

For the compound `O=C(O)CN1CCN(Cc2cn(C(c3ccccc3)c3ccccc3)c3ccc(NC(=O)C4CCCC4)cc23)CC1` [Example 66, 2-[4-({1-benzhydryl-5-[(cyclopentylcarbonyl)amino]-1H-indol-3-yl}methyl)piperazino]acetic acid], the inhibition in vivo at 5 mg/kg in assay [1] is 25.3%. Besides, the inhibition at 70 µM in assay [2] (CONCENTRATION 70 micromolar, read-out: PERCENT INHIBITION @) stood at 50%. For the same compound, the “PERCENT INHIBITION @” value in assay [2] (CONCENTRATION 200 micromolar) came out at 19%. Besides, the inhibition at 200 µM in assay [2] (CONCENTRATION 200 micromolar, read-out: PERCENT INHIBITION @) is 15%. For the compound `O=C(Nc1cccc(C(=O)O)c1)C(=O)c1cn(C(c2ccccc2)c2ccccc2)c2ccc(NC(=O)C3CCCC3)cc12` [Example 104, 3-[(2-{1-benzhydryl-5-[(cyclopentylcarbonyl)amino]-1H-indol-3-yl}-2-oxoacetyl)amino]benzoic acid], in assay [1] (po, PO, 2 mg/Kg), the inhibition in vivo at 2 mg/kg came to 14.5%. In assay [1] (po, PO, 10 mg/Kg), the inhibition in vivo at 10 mg/kg was 6.01%. Moreover, the inhibition at 22 µM in assay [2] (CONCENTRATION 22 micromolar, read-out: PERCENT INHIBITION @) was 50%. The inhibition at 24 µM in assay [2] (CONCENTRATION 24 micromolar, read-out: PERCENT INHIBITION @) came out at 50%. Regarding `COc1cc(C(N)=O)ccc1Cc1cn(C(c2ccccc2)c2ccccc2)c2ccc(NC(=O)OC3CCCC3)cc12` [Example 97, Cyclopentyl-N-{3-[4-(aminocarbonyl)-2-methoxybenzyl]-1-benzhydryl-1H-indol-5-yl}carbamate], in assay [1], the inhibition in vivo at 5 mg/kg worked out at 21.3%. In assay [2] (setting [3]), the inhibition at 50 µM came to 50%. Besides, the inhibition at 80 µM in assay [2] (CONCENTRATION 80 micromolar, read-out: PERCENT INHIBITION @) was 50%. Also, in assay [2] (CONCENTRATION 94 micromolar, read-out: PERCENT INHIBITION @), the inhibition at 94 µM turned out to be 50%. As for `Cc1ccc(S(=O)(=O)NC(=O)c2cccc(NC(=O)C(=O)c3cn(Cc4ccc(Cc5ccccc5)cc4)c4ccc(OCc5ccccc5)cc34)c2)cc1` [Example 76, 2-[1-(4-benzylbenzyl)-5-(benzyloxy)-1H-indol-3-yl]-N-[3-({[(4-methylphenyl)sulfonyl]amino}carbonyl)phenyl]-2-oxoacetamide], the inhibition in vivo at 5 mg/kg in assay [1] amounted to 14.8%. In assay [2] (CONCENTRATION 4 micromolar, read-out: PERCENT INHIBITION @), the inhibition at 4 µM came out at 50%.

Regarding `CCCn1cc(Cc2ccc(C(=O)NS(=O)(=O)c3ccccc3C)cc2OC)c2cc(NC(=O)OC3CCCC3)ccc21` [Example 2, Cyclopentyl N-{3-[2-methoxy-4-({[(2-methylphenyl)sulfonyl]amino}carbonyl)benzyl]-1-propyl-1H-indol-5-yl}carbamate], the inhibition in vivo at 5 mg/kg in assay [1] was 15.9%. In the case of `O=C(O)c1ccc(OCCc2c(COCc3ccccc3[N+](=O)[O-])n(C(c3ccccc3)c3ccccc3)c3ccc(Cl)cc23)cc1` [Example 155, 4-[2-(1-benzhydryl-5-chloro-2-{[(2-nitrobenzyl)oxy]methyl}-1H-indol-3-yl)ethoxy]benzoic acid], the inhibition at 2.2 µM in assay [2] (Conc 2.2 uM, read-out: % Inhibition) came to 50%. As for `COc1cc(C(=O)NCC(=O)O)ccc1Cc1cn(C(c2ccccc2)c2ccccc2)c2cc(Cl)ccc12` [Example 138, 2-({4-[(1-benzhydryl-6-chloro-1H-indol-3-yl)methyl]-3-methoxybenzoyl}amino)acetic acid], the inhibition at 0.4 µM in assay [2] (read-out: PERCENT INHIBITION @) stood at 50%. Consider `CCCn1cc(Cc2ccc(C(=O)NS(=O)(=O)c3ccccc3C)cc2OC)c2cc(NC(=O)OC3CCCC3)ccc21` [Example 20, Cyclopentyl N-{3-[2-methoxy-4-({[(2-methylphenyl)sulfonyl]amino}carbonyl)benzyl]-1-propyl-1H-indol-5-yl}carbamate], for which the inhibition at 25 µM in assay [2] (CONCENTRATION 25 micromolar, read-out: PERCENT INHIBITION @) is 50%. In assay [2] (CONCENTRATION 32 micromolar, read-out: PERCENT INHIBITION @), the inhibition at 32 µM came to 50%. For the compound `O=C(O)CCc1ccc(OCCc2c(CO)n(C(c3ccccc3)c3ccccc3)c3ccc(Cl)cc23)cc1` [Example 167, 3-(4-{2-[1-benzhydryl-5-chloro-2-(hydroxymethyl)-1H-indol-3-yl]ethoxy}phenyl)propanoic acid], in assay [2] (Conc 1.3 uM, read-out: % Inhibition), the inhibition at 1.3 µM stood at 50%. Take `O=C(O)/C=C/COc1ccc(Cc2cn(C(c3ccccc3)c3ccccc3)c3cc(Cl)ccc23)cc1` [Example 122, (E)-4-{4-[(1-benzhydryl-6-chloro-1H-indol-3-yl)methyl]phenoxy}-2-butenoic acid]: the inhibition at 1.25 µM in assay [2] (setting [4]) came out at 64%. With `O=C(O)C1CC1Cc1cn(C(c2ccccc2)c2ccccc2)c2cc(Cl)ccc12` (stereo not drawn) [Example 126, 2-[(1-benzhydryl-6-chloro-1H-indol-3-yl)methyl]cyclopropanecarboxylic acid], in assay [2] (CONCENTRATION 5.5 micromolar, read-out: PERCENT INHIBITION @), the inhibition at 5.5 µM was 50%. In the case of `O=C(O)c1ccc(Cc2cn(C(c3ccccc3)c3ccccc3)c3cc(Cl)ccc23)c(O)c1` [Example 130, ′4-[(1-benzhydryl-6-chloro-1H-indol-3-yl)methyl]-3-hydroxybenzoic acid], the “PERCENT INHIBITION @” value in assay [2] (CONCENTRATION 2 micromolar) turned out to be 50%. For `O=C1NC(=O)/C(=C\c2cn(CCCOc3cccc(Cc4ccccc4)c3)c3ccccc23)S1` [Example 82A, 5-((E)-{1-[3-(3-benzylphenoxy)propyl]-1H-indol-3-yl}methylidene)-1,3-thiazolane-2,4-dione], the inhibition at 46 µM in assay [2] (CONCENTRATION 46 micromolar, read-out: PERCENT INHIBITION @) stood at 50%. Also, in assay [2] (setting [3]), the inhibition at 50 µM was 50%. For `COc1cc(C(=O)O)ccc1Cc1cn(CC2CC2)c2ccc(NC(=O)OC3CCCC3)cc12` [Example 5, 4-{[5-{[(cyclopentyloxy)carbonyl]aminol}-1-(cyclopropylmethyl)-1H-indol-3-yl]methyl}-3-methoxybenzoic acid], the “PERCENT INHIBITION @” value is reported as 41% in assay [2] (CONCENTRATION 100 micromolar) and 50% in assay [2] (CONCENTRATION 120 micromolar). For the compound `Cc1c(C(=O)O)c2cc(OCc3ccccc3)ccc2n1Cc1ccccc1` [Example 111, 1-benzyl-5-(benzyloxy)-2-methyl-1H-indole-3-carboxylic acid], in assay [2] (CONCENTRATION 50 micromolar), the “PERCENT INHIBITION @” value is listed as 15%. For the same compound, the inhibition at 50 µM in assay [2] (setting [3]) was determined as 16%. In the case of `O=C(O)C(=O)Nc1ccc(Cc2cn(C(c3ccccc3)c3ccccc3)c3cc(Cl)ccc23)cc1` [Example 125, 2-{4-[(1-benzhydryl-6-chloro-1H-indol-3-yl)methyl]anilino}-2-oxoacetic acid], the inhibition at 0.8 µM in assay [2] (CONCENTRATION 0.8 micromolar, read-out: PERCENT INHIBITION @) came out at 50%.

On to `COc1ccc(C(c2ccc(OC)cc2)n2cc(Cc3ccc(C(=O)O)cc3OC)c3ccc(Cl)cc32)cc1` [Example 134, ′4-({1-[bis(4-methoxyphenyl)methyl]-6-chloro-1H-indol-3-yl}methyl)-3-methoxybenzoic acid], for which the “PERCENT INHIBITION @” value in assay [2] (CONCENTRATION 0.8 micromolar) is on record as 50%. In the case of `Cc1c(CCOc2ccc(CCC(=O)O)cc2)c2cc(Cl)ccc2n1C(c1ccccc1)c1ccccc1` [Example 171, 3-{4-[2-(1-Benzhydryl-5-chloro-2-methyl-1H-indol-3-yl)ethoxy]phenyl}propanoic acid (10)], the “% Inhibition” value in assay [2] (Conc 0.4 uM) is 50%. Consider `COc1ncc(C(c2ccccc2)n2cc(Cc3ccc(C(=O)O)cc3OC)c3ccc(Cl)cc32)c(OC)n1` (stereo not drawn) [Example 136, 4-({6-chloro-1-[(2,4-dimethoxy-5-pyrimidinyl)(phenyl)methyl]-1H-indol-3-yl}methyl)-3-methoxybenzoic acid], for which, in assay [2] (read-out: PERCENT INHIBITION @), the inhibition at 0.4 µM turned out to be 50%.

In the case of `Cc1c(Cc2ccc(C(=O)O)cc2)c2cc(Cl)ccc2n1C(c1ccccc1)c1ccccc1` [Example 88, 4-[(1-benzhydryl-5-chloro-2-methyl-1H-indol-3-yl)methyl]benzoic acid], the “PERCENT INHIBITION @” value in assay [2] (CONCENTRATION 1.25 micromolar) is listed as 53%. Moreover, in assay [2] (setting [4]), the inhibition at 1.25 µM amounted to 50%. In addition, the inhibition at 1.32 µM in assay [2] (CONCENTRATION 1.32 micromolar, read-out: PERCENT INHIBITION @) was found to be 50%.

The term inhibition denotes the drop in the measured response relative to a control, in per cent. The % Inhibition is how much of the control response was suppressed. A high value points to a response far below the control.
